Values quoted from earlier work as cited in patent US20160326157A1, “MONOBACTAMS AND METHODS OF THEIR SYNTHESIS AND USE” (PRESIDENT AND FELLOWS OF HARVARD COLLEGE, priority 2014, published 2016).

Key:
[1] = tested on: Gram-positive or anaerobic bacteria
[2] = in vivo

## C[C@H]1[C@H](NC(=O)/C(=N\OC(C)(C)C(=O)O)c2csc(N)n2)C(=O)N1S(=O)(=O)O [Aztreonam]
Enterobacteriaceae
  concentration inhibiting most Enterobacteriaceae: less than 0.5 g/mL
[1]
  activity against Gram-positive or anaerobic bacteria: inactive
[2]
  absorption from the gastrointestinal tract: not absorbed
  route of excretion: renally excreted
